Source: ChEMBL document CHEMBL1150766, “Synthesis and in vitro biological activity of retinyl retinoate, a novel hybrid retinoid derivative” (Bioorg Med Chem, 2008)
Calls of active or inactive are those of the source. The calls are words filed in the database; no cut-off is given here.

Experiments:
[1] = biological target: T1, Retinoic acid receptor alpha (Homo sapiens) (UniProt P10276); experiment: Increase in transcriptional activity of RARalpha receptor epressed in human HaCaT cells co-transfected with DR5-tk-CAT reporter plasmid assessed as beta-galactosidase activity by CAT-ELISA; assay type: cell-based
T1 sequence (whole entry): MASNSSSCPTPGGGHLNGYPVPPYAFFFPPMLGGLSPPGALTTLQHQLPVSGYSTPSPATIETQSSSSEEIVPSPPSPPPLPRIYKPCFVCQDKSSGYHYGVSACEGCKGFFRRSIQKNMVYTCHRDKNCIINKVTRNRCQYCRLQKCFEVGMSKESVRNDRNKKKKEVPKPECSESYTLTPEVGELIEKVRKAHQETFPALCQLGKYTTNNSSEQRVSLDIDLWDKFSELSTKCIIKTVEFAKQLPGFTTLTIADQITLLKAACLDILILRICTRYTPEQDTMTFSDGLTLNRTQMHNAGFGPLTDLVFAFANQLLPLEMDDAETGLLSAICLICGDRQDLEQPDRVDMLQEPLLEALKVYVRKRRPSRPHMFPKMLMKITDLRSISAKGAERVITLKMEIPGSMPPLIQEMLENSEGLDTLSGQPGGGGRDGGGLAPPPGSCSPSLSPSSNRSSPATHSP

HaCaT [2] = experiment: Decrease in collagenase expression in Coll-CAT gene transfected human HaCaT cells co-transfected with c-Jun relative to control; assay type: functional
[3] = Stability in human fibroblasts assessed as retention time after 2 days; assay type: ADME, cell-based; conditions: fibroblast, 48 h
Fibroblast [4] = experiment: Induction of CRABP 2 mRNA expression in human normal fibroblast at 10 uM by […] relative to control; assay type: functional
Fibroblast [5] = experiment: Induction of collagen biosynthesis in human normal fibroblast; assay type: functional, cell-based
[6] = Thermal stability at 4 degC after 4 weeks; assay type: physicochemical; conditions: 672 h
[7] = Cytotoxicity against human normal fibroblast after 1 day by MTT assay; assay type: cell-based; conditions: 24 h
HaCaT [8] = experiment: Decrease in collagenase expression in Coll-CAT gene transfected human HaCaT cells co-transfected with c-Jun and retinoic acid receptor relative to control; assay type: functional
[9] = biological target: Transcription factor Jun (Homo sapiens) (UniProt P05412); experiment: Inhibition of AP1 expressed in human HaCaT cells transfected with Coll-CAT reporter gene assessed as collagenase expression by CAT-ELISA; assay type: cell-based
Fibroblast [10] = experiment: Induction of CRABP 2 mRNA expression in human normal fibroblast at 1 uM by […] relative to control; assay type: functional
[11] = Photostability after UV irradiation; assay type: physicochemical
[12] = Thermal stability at 40 degC after 4 weeks; assay type: physicochemical; conditions: 672 h

Transcription factor Jun (Homo sapiens), sequence (P05412 whole entry): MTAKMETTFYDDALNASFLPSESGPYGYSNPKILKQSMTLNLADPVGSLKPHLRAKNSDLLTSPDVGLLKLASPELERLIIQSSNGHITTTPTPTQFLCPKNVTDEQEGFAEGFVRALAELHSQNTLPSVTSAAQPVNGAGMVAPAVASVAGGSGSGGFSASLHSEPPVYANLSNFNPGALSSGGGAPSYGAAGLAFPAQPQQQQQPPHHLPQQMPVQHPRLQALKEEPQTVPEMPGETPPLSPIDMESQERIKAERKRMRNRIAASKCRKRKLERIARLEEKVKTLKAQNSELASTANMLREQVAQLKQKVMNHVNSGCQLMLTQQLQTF

Compound | Activity [1] | inhibition (INH) (HaCaT [2]) [%] | Activity [3] [min] | Activity (Fibroblast [4]) | Activity (Fibroblast [5]) | Stability [6] | IC50 [7] [µM] | inhibition (INH) (HaCaT [8]) [%] | Activity [9] | Activity (Fibroblast [10]) | Stability [11] | Activity [12] | Activity [11]
CC1=C(/C=C/C(C)=C/C=C/C(C)=C/COC(=O)/C=C(C)/C=C/C=C(C)/C=C/C2=C(C)CCCC2(C)C)C(C)(C)CCC1 [RETINYLRETINOATE] | Active | 6.7 | 18.94 | 1.75 | Active | Stable | 40 | 52 | Active | 1.56 | Stable |  | 
CC1=C(/C=C/C(C)=C/C=C/C(C)=C/C(=O)O)C(C)(C)CCC1 [TRETINOIN] |  | 5.4 |  | 2.05 |  |  |  | 64 |  | 1.84 |  |  | 
CC1=C(/C=C/C(C)=C/C=C/C(C)=C/CO)C(C)(C)CCC1 [RETINOL] | Active | 7.3 |  | 1.44 |  | Stable | 25 | 33 |  | 1.4 |  | Not Active | Not Active
CCCCCCCCCCCCCCCC(=O)OC/C=C(C)/C=C/C=C(C)/C=C/C1=C(C)CCCC1(C)C [VITAMIN A PALMITATE] |  |  |  | 1.4 |  |  |  |  |  | 1.2 |  |  | 
